According to BindingDB's records for doi:10.1021/jm001043t (Lawrence Berkeley National Laboratory, 2001):

Columns and labels:
[1] = molecular target: Cyclin-dependent kinase 2/G1/S-specific cyclin-E1 (Homo sapiens, UniProt P24941); test: CDK2/Cyclin E and CDK4/Cyclin D1 Kinase Assay; settings: pH 7.5; 30 °C
Description: (§1) The enzyme was assayed with substrate GST-Rb in the presence of 10 uM ATP/[gamma-33P] ATP, and capturing the 33-P labeled reaction products on GSH-Sepharose beads. […] Use of 33P-labeled ATP allows this transfer to be monitored by scintillation counting.

[2] = molecular target: Cyclin-dependent kinase 4/G1/S-specific cyclin-D1 (Homo sapiens, UniProt P11802); test: CDK2/Cyclin E and CDK4/Cyclin D1 Kinase Assay; settings: pH 7.5; 30 °C
Description: as §1

[3] = molecular target: Cyclin-dependent kinase/G2/mitotic-specific cyclin- 1 (Homo sapiens, UniProt P06493); test: CDK1/Cyclin B Kinase SPA Assay; settings: pH 8; 30 °C
Description: The biochemical activity of compounds was determined by incubation with specific enzyme and substrate in the presence 0.5 uM ATP/ [gamma-33P] ATP. After incubation, the reaction was stopped and the phosphorylated substrate was separated from nonincorporated radioactive ATP using Streptavidin-coated SPA beads, counted using TopCount (Packard) to measure substrate-incorporated phosphate.

Chain of Cyclin-dependent kinase/G2/mitotic-specific cyclin- 1 (P06493 whole entry): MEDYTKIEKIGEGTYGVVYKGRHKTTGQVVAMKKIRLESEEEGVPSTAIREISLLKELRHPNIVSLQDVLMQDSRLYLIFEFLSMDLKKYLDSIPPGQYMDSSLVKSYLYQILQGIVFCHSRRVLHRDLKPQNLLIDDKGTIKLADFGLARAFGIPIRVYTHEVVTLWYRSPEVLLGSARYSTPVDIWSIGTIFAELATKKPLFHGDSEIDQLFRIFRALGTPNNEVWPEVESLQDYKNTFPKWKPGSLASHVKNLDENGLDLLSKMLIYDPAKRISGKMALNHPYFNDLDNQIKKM
Chain of Cyclin-dependent kinase/G2/mitotic-specific cyclin- 1 (P14635 whole entry, further chain): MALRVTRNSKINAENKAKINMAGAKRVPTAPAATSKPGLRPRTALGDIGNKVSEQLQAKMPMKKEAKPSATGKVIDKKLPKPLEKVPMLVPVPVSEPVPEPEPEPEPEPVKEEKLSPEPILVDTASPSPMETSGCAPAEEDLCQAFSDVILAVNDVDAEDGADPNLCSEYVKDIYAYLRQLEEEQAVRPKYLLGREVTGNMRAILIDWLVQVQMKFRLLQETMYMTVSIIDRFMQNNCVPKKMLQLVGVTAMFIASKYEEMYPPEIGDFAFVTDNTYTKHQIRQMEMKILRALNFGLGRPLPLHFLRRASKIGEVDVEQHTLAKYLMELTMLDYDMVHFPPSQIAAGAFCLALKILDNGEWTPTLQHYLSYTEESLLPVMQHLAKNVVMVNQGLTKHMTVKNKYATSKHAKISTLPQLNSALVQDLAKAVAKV
Chain of Cyclin-dependent kinase 4/G1/S-specific cyclin-D1 (P11802 whole entry): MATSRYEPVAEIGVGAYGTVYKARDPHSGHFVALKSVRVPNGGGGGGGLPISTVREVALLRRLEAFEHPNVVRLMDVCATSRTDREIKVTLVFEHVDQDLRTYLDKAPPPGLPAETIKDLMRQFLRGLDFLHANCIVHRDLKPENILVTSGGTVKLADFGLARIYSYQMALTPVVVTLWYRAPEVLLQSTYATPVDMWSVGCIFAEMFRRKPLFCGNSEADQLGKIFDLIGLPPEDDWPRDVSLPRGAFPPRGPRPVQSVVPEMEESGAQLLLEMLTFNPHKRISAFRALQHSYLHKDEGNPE
Chain of Cyclin-dependent kinase 4/G1/S-specific cyclin-D1 (P24385 whole entry, further chain): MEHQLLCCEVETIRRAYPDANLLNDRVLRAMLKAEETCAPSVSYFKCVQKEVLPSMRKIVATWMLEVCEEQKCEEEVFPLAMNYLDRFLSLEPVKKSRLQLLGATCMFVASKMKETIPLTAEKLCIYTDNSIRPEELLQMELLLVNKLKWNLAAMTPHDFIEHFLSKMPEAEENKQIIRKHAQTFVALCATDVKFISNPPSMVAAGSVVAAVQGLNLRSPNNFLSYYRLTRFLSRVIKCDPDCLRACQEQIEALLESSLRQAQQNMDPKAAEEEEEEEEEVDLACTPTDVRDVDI

- IC50 [1]: 720 nM
- IC50 [2]: 8.8 µM
- IC50 [3]: 2000 nM
Structure (SMILES): C[C@@H](Nc1nc(N[C@H]2CC[C@H](N)CC2)nc2c1ncn2C1CCCC1)c1ccccc1 [2,6,9-trisubstituted adenine derivative]
